Series [1] is described as follows: Real‐time fluorescence imaging (Cy5) and biodistribution analysis. The series is classed as in vivo, U87MG xenograft nude mice. The note with it: Cy5‐labeled; for Drug distribution at the tumor site in the brain: 5.25 µmol/5 mL kg^−1. The protocol:
An untreated group was administered with physiological saline as a control. Real‐time fluorescence images were captured and analyzed using the IVIS Lumina Imaging System (PerkinElmer, Waltham, MA). […] At 0.5, 2, 4, 12, 24 and 48 h after administration, 3 mice were taken from each group to capture real‐time fluorescence images of the tumor and drug distribution, and the images were analyzed by the IVIS Lumina Imaging System. The excitation and emission quantitative wavelengths used were 640 nm and 700 nm, respectively. At the end of each experiment, animals were euthanized and their brains, lungs, hearts, livers, and kidneys were harvested and further tested by the IVIS Lumina imaging system to determine the drug distribution in tissue from each organ.

A further series has as its system U87MG. Nature of the series: MTS cell proliferation assay. The series is classed as cell-based. The note with it: Homo sapiens, U-87 MG, linear regression. Here is the method: (§1) The human GBM cell lines (U87MG and U251) were respectively obtained from the American Type Culture Collection (ATCC, Manassas, VA) and the China Academic Sinica Cell Repository (Shanghai, China) and cultured in accordance with the protocol of the supplier. In brief, all the cell lines were maintained in Dulbecco's Modified Eagle Medium (DMEM; Gibco, Grand Island, NY) supplemented with 10% fetal bovine serum (FBS; Biological Industries, Kibbutz Beit Haemek, Israel). Cells were incubated in a humidified incubator at 37 °C under 5% CO2 atmosphere.
(§2) The cells treated with PBS and 100 × 10^−6 м SynB3‐PVGLIG were used as the control and the dual‐functional peptide control, respectively. After treatment, the cells were washed with PBS three times and subsequently incubated with 20 µL Cell Titer 96AQeuous One Solution Reagent (Promega, Madison, WI, USA) for 2 h at 37 °C. The absorbance was measured on a Synergy microplate reader (BioTek Instruments, Winooski, VT) at 490 nm. All the data were obtained from three independent experiments performed in three wells. The absorbance of cells in the control group was taken as 100% viability, and the inhibition rate of cell viability was counted by using the following equation: % Inhibition rate = (Absorbancecontrol − Absorbancetest)/(Absorbancecontrol − Absorbanceblank) × 100.

In another series the test system is U251. Nature of the series: MTS cell proliferation assay. The series is classed as cell-based. The settings on record: Homo sapiens. The protocol:
as §1, §2

A short description of series [2]: Solubility in PBS at 3 mg mL^−1 (appearance of the solution). The class given is physicochemical.
A further series deals with U251+MMP‐2 siRNA. Nature of the series: MTS cell proliferation assay. The class given is cell-based. The note with it: Homo sapiens. The protocol:
as §1
(§3) Homo‐MMP‐2 siRNA and nonsilencing siRNA were designed and synthesized by GenePharma (Suzhou, China). The transfection of siRNA was performed using the X‐tremeGENE siRNA transfection reagent (Roche, Mannheim, Germany) in accordance with the manufacturer's instructions. Before transfection, all the cell lines were inoculated at a density of 5 × 10^5 cells per well in a 6‐well plate. After incubation overnight, the cells were washed with fresh DMEM medium without FBS. At the same time, the reagent of transfection was mixed with homo‐MMP‐2 siRNA or nonsilencing siRNA (50 × 10^−9 м) for 15 min at a room temperature. The solution of the transfection complex was then added into the cell for 24 h. As a negative control group, a nonsilencing siRNA was transfected in the cell line in order to eliminate the influence of the transfection reagent.
as §2

The subject of another series is U87MG+MMP‐2 siRNA. The series is described as follows: MTS cell proliferation assay. The class given is cell-based. The settings on record: Homo sapiens. Here is the method: as §1, §3, §2
Series [3] deals with T1, recombinant human MMP‐2 protein (Homo sapiens, UniProt P08253).
T1 construct: purchased PeproTech (Rocky Hill, NJ, USA)
T1 sequence (P08253 110-660): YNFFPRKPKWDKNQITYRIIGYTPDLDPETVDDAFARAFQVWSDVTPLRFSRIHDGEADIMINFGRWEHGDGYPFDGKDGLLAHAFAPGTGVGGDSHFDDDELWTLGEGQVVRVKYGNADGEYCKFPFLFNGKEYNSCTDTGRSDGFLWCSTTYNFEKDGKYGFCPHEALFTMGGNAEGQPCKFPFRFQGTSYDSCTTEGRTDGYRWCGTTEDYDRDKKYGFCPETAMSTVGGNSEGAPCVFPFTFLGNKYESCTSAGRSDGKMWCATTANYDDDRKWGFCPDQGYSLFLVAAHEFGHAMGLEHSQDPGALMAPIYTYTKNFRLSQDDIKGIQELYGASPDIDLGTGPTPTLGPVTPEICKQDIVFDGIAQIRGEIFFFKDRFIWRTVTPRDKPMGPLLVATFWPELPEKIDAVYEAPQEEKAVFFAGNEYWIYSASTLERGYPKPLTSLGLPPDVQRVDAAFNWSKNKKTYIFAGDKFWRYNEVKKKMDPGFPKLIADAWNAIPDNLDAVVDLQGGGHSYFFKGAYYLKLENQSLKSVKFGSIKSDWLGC
Nature of the series: Release study: cleavage by MMP‐2, HPLC/MS. The class given is in vitro ADME. Here is the method: The recombinant human MMP‐2 protein with 62.0 kDa molecular weight was purchased from PeproTech (Rocky Hill, NJ, USA). To observe the ability of cleavage in vitro, MMP‐2 was incubated with 4‐aminophenylmercuric acetate (7 × 10^−3 M) at 37 °C for 1 h. […] The reacting solution (50 µL) was then collected and analyzed through HPLC/MS. The spectra data were collected at 220 nm using gradient solvent conditions. BEH C18, 1.7 × 10^−6 м, 100 × 2.1 mm column was used. The chromatographic conditions used for the analyses were: solvent A – 0.1% formic acid in water; solvent B – 0.1% formic acid in acetonitrile: 0–15 min: 2% MeCN, 15–18 min: 100% MeCN, 18–20 min: 2% MeCN, with a flow rate of 0.3 mL min^−1.

Series [4] is described as follows: Cerebral distribution: free PTX in tumor and tumor‐free brain tissue by HPLC/MS. The class given is in vivo, nude mice with orthotopic U87MG transplantation. Here is the method:
PTX levels in the mouse brains were measured by the HPLC/MS method. […] Tumor‐free brain tissue as well as the tumor were isolated and weighed separately. The tissue was placed on a 35 mm dish and washed with PBS on ice. The tissue was then cut into small pieces with a surgical scissor and transferred into a 1.5 mL centrifuge tube. Appropriate amounts of 50% methanol were added into the tube to prepare the tissue suspension (0.2 g mL^−1). The tissue suspensions were thoroughly homogenized by an ultrasonic cell disrupter. Thereafter, the tissue homogenates were centrifuged at 10 000 × g for 30 min. The precipitate was removed, and the supernatant was collected for further content analysis by HPLC/MS. […] The drug response values were obtained and analyzed.

Series [5] is described as follows: tumor‐free (normal) brain tissue of nude mice with orthotopic U87MG transplantation after i.v. injection. The settings on record: BALB/C athymic nude mice, up to 12 h.
Another series has as its system MMP‐2. The series is described as follows: recombinant human MMP‐2 protein (5 ng µL^−1), activated with 4‐aminophenylmercuric acetate. The note with it: 37 °C, up to 3 h.
The nature of series [6]: tumor tissue from brains of nude mice with orthotopic U87MG transplantation after i.v. injection. The settings on record: BALB/C athymic nude mice, up to 12 h.
[7] abbreviates: 5.25 µmol/5 mL kg^−1, tail vein.

Entries after “also recorded” stand apart in the source; their conditions may differ. Like-named read-outs stand apart in the source and are kept apart here. Residues, ends and D or L forms follow the SMILES beside them. *: point of attachment. X1 = CC(=O)O[C@H]1C(=O)[C@@]2(C)[C@H]([C@H](OC(=O)c3ccccc3)[C@]3(O)C[C@H](OC(=O)[C@H](OC(=O)CC(=O)*)[C@@H](NC(=O)c4ccccc4)c4ccccc4)C(C)=C1C3(C)C)[C@]1(OC(C)=O)CO[C@@H]1C[C@@H]2O

Consider `CC(=O)O[C@H]1C(=O)[C@@]2(C)[C@H]([C@H](OC(=O)c3ccccc3)[C@]3(O)C[C@H](OC(=O)[C@H](O)[C@@H](NC(=O)c4ccccc4)c4ccccc4)C(C)=C1C3(C)C)[C@]1(OC(C)=O)CO[C@@H]1C[C@@H]2O` [PTX, Paclitaxel], for which, in series [1], the “Drug distribution at the tumor site in the brain” value is “no drug distribution was detected”. For the same molecule, in [1] (setting [7]), the “Tissues in which the fluorescence signal (Cy5) was mainly detected” value was “lungs, liver, and kidneys”. Also, the IC50 came to 148 µM in the series on U87MG (4 h); 46.3 µM in the series on U87MG (24 h); 31.3 µM in the series with U87MG (48 h); 181 µM in the series on U251 (U-251, U251, 4 h); 47.1 µM in the series with U251 (U-251, U251, 24 h); 27.4 µM with U251 (U-251, U251, 48 h). The IC50 with U251+MMP‐2 siRNA (4 h) stood at 136 µM; in the series on U251+MMP‐2 siRNA (24 h), 31.5 µM; in the series with U251+MMP‐2 siRNA (48 h), 23.6 µM; in the series on U87MG+MMP‐2 siRNA (4 h), 209 µM; in the series on U87MG+MMP‐2 siRNA (24 h), 37.3 µM; in the series with U87MG+MMP‐2 siRNA (48 h) it was 28.5 µM. Further, the “Solubility in PBS (appearance)” value in series [2] was “nearly insoluble”.

With `CC[C@H](C)[C@H](NC(=O)[C@H](CC(C)C)NC(=O)CNC(=O)[C@@H](NC(=O)[C@@H]1CCCN1C(=O)CC(=O)O[C@@H](C(=O)O[C@H]1C[C@@]2(O)[C@@H](OC(=O)c3ccccc3)[C@@H]3[C@]4(OC(C)=O)CO[C@@H]4C[C@H](O)[C@@]3(C)C(=O)[C@H](OC(C)=O)C(=C1C)C2(C)C)[C@@H](NC(=O)c1ccccc1)c1ccccc1)C(C)C)C(=O)NCC(=O)N[C@@H](CCCNC(=N)N)C(=O)N[C@@H](CCCNC(=N)N)C(=O)N[C@@H](CC(C)C)C(=O)N[C@@H](CO)C(=O)N[C@@H](Cc1ccc(O)cc1)C(=O)N[C@@H](CO)C(=O)N[C@@H](CCCNC(=N)N)C(=O)N[C@@H](CCCNC(=N)N)C(=O)N[C@@H](CCCNC(=N)N)C(=O)N[C@@H](Cc1ccccc1)C(=O)O` [SynB3‐PVGLIG‐PTX, PTX‐2′OH‐malonyl‐PVGLIG‐SynB3] (X1-PVGLIGRRLSYSRRRF-OH), the mean diameter of nanocomplex was 162 nm. For the same molecule, the “Drug distribution at the tumor site in the brain” value in series [1] is “mainly distributed in the transplanted gliomas”. For the same molecule, the “Fluorescent signal at 48 h” value in series [1] (5.25 µmol/5 mL kg^−1, 48 h) is given as “could still be detected in brain”. The “Tissues in which the fluorescence signal (Cy5) was mainly detected” value in [1] (setting [7]) was “bladder, liver, kidneys, lungs, and brain”. The “Time at which the fluorescent signal in the brain tumor peaked” value in series [1] (5.25 µmol/5 mL kg^−1, tail vein, imaged 0.5–48 h) amounted to 12 h. In addition, the “Cleavage without MMP‐2” value in series [3] (2.5 mg mL^−1, no MMP‐2, HPLC/MS, neither PVG‐PTX nor free PTX detected) is “could not be cleaved”. Besides, the “Percentage of conjugate cleaved by MMP‐2” value in [3] (2.5 mg mL^−1 conjugate, activated MMP‐2 5 ng µL^−1, 0.5 h, HPLC/MS) was “about 41.18%”. Further, the “PTX concentration in tumor, times that of the normal brain” value in series [4] (2 h after single dose 5.25 µmol/5 mL kg^−1 i.v.) came out at 20 times. Besides, in series [4] (last time point (sampling 2, 4, 12 h), single dose 5.25 µmol/5 mL kg^−1 i.v., HPLC/MS, n = 5), the “Concentration of PTX in the tumor tissue, finally reached” value is on record as 456.32 µg G^−1.

PVGLIG-RRLSYSRRRF: the fragment found result in [5] is recorded as “free PTX, 2 h”; in the series with MMP‐2, “PVG‐PTX, 0.5 h; also recorded: SynB3-LIG”; in series [6], “free PTX, 2 h”.

Turning to `Cn1nnc2c(C(N)=O)ncn2c1=O` [TMZ, Temozolomide], the IC50 with U87MG (4 h) turned out to be 392 µM; in the series with U87MG (24 h), 382 µM; with U87MG (48 h), 514 µM; in the series on U251 (U-251, U251, 4 h), 3070 µM; in the series on U251 (U-251, U251, 24 h), 660 µM; in the series with U251 (U-251, U251, 48 h), 213 µM. Besides, the half-inhibitory concentration (IC50) is 3300 µM with U251+MMP‐2 siRNA (4 h); 869 µM in the series with U251+MMP‐2 siRNA (24 h); 131 µM in the series on U251+MMP‐2 siRNA (48 h); 471 µM in the series on U87MG+MMP‐2 siRNA (4 h); 414 µM with U87MG+MMP‐2 siRNA (24 h); 280 µM in the series on U87MG+MMP‐2 siRNA (48 h). Moreover, the “Solubility in PBS (appearance)” value in series [2] (3 mg mL^−1 in PBS, visual) is on record as “nearly insoluble”.

Source of the values: article PMC7856885 (Advanced Science, 2020).
